Test results: ChEMBL document CHEMBL1201862, “PubChem BioAssay data set” (2004)
The source made the active and inactive calls.

Assays:
[1] = target: Eukaryotic translation initiation factor 4E (Mus musculus, UniProt P63073); experiment: eIF4E–eIF4G protein interaction inhibitors, dose response, biochemical, TR-FRET (AID 855); assay type: functional;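 also: potency for disrupting eIF4E binding to eIF4GI seen as loss of FRET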
[2] = Luminescence Cell-Based Dose Response HTS to Identify Inhibitors of 5'UTR Stem-Loop Driven Prion Protein mRNA Translation in H4 Neuroglioblastoma Cells. [Related pubchem assays: 1827 (Project Summary), 1813 (Primary HTS)]; assay type: functional
HEK293 [3] = experiment: cells; assay type: functional, cell-based; conditions: Homo sapiens
HEK293 [4] = experiment: cells; assay type: functional, cell-based; conditions: Homo sapiens; remark: listed apart in the source
BJ [5] = experiment: cells; assay type: functional, cell-based; conditions: Homo sapiens
[6] = Fluorescence-based cell-based high throughput dose response assay for inhibitors of the interaction of nucleotide-binding oligomerization domain containing 2 (NOD2) and the receptor-interacting serine-threonine kinase 2 (RIPK2).; assay type: functional; conditions: Homo sapiens
[7] = inhibitors of SNCA 5'UTR-driven reporter translation, confirmation, H4 neuroglioma cells, luminescence (AID 1988); assay type: functional, cell-based
[8] = target: T1, Delta-type opioid receptor (Homo sapiens, UniProt P41143); experiment: HTS Image-Based Screen for Antagonists of the DOR Receptor. [Related pubchem assays (depositor defined):AID1777, AID1785, AID1786, AID2133]; assay type: functional
T1 sequence (P41143 whole entry): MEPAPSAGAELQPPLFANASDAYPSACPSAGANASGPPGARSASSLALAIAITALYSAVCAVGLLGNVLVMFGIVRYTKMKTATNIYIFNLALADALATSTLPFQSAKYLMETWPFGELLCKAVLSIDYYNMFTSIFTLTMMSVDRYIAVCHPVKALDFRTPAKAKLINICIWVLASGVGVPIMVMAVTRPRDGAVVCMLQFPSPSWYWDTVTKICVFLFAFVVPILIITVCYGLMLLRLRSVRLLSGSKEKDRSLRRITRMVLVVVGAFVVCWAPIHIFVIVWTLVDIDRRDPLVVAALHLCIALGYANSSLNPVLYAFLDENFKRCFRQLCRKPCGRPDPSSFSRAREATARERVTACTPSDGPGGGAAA

[9] = target: T1, Delta-type opioid receptor; experiment: HTS Image-Based Screen for Agonists of the DOR Receptor. [Related pubchem assays (depositor defined):AID1777, AID1786, AID2133]; assay type: functional
[10] = cytotoxicity toward DRD oncogenic fibroblasts, dose response, cell-based, non-viral oncogenic, luminescence (AID 1934); assay type: functional; conditions: Homo sapiens
BJ [11] = experiment: cytotoxicity toward BJ-TERT-LT-ST fibroblasts, dose response, cell-based, RAS-independent, luminescence (AID 1935); assay type: functional; conditions: Homo sapiens;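 also: BJ fibroblasts immortalized with TERT plus LT and ST oncogenes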
[12] = target: T2, Kappa-type opioid receptor (Homo sapiens, UniProt P41145); assay type: functional
T2 sequence (P41145 whole entry): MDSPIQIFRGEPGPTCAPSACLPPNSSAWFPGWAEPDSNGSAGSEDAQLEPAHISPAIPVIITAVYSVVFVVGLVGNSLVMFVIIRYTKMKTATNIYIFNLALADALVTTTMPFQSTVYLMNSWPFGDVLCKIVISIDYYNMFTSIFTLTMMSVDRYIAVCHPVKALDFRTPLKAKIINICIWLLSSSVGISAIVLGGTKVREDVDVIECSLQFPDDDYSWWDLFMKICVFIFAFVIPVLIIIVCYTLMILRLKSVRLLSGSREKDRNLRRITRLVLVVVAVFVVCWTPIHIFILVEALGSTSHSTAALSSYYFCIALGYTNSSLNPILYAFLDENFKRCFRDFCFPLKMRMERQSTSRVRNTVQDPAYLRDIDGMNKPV

[13] = inhibitors of firefly luciferase expression or activity, dose response, H4 neuroglioma cells, luminescence (AID 1990); assay type: functional, cell-based
[14] = target: T3, Microphthalmia-associated transcription factor (Homo sapiens, UniProt O75030); experiment: TRPM1 promoter luciferase signal decrease, dose response, MITF inhibitor project, cell-based, SK-MEL-5, cherry-picked, set 3 (AID 493073); assay type: functional
T3 sequence (O75030 whole entry): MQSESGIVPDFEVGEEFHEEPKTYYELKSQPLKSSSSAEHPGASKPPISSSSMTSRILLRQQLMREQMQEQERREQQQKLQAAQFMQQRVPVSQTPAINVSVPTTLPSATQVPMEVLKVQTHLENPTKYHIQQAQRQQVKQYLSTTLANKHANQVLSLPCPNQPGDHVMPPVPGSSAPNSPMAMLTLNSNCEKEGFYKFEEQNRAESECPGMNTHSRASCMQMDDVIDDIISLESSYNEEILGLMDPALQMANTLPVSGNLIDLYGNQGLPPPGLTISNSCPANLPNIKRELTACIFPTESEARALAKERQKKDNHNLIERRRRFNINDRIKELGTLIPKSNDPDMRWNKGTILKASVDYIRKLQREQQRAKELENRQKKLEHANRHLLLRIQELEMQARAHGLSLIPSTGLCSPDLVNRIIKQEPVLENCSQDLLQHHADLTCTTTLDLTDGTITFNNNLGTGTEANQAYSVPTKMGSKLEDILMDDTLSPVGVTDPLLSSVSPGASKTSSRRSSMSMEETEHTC

[15] = target: T2, Kappa-type opioid receptor; assay type: functional; remark: listed apart in the source
[16] = Shn3 3'UTR reporter inhibitors, dose response, cell-based, Clone20 osteoblasts, firefly luciferase, cherry-picked (AID 624132); assay type: functional;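 also: firefly luciferase luminescence from reporter carrying the Shn3 3'UTR in osteoblasts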
[17] = HepG2 cell cytotoxicity, dose response, cytotoxicity control for Shn3 inhibitor project, CellTiter-Glo, cherry-picked (AID 624134); assay type: functional, cell-based
Paired box protein Pax-8 = Paired box protein Pax-8 (Homo sapiens, UniProt Q06710); experiment: inhibitors of PAX8-driven TPO luciferase reporter, dose response, RMG-I cells, cherry-pick (AID 687027); assay type: functional, cell-based;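 also: luciferase reporter driven by Pax8 target thyroperoxidase promoter measured by SteadyGlo luminescence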
HEK293 [18] = experiment: NOD1 signaling inhibitors, primary screen, cell-based, luminescence, uHTS (AID 1578); assay type: functional; conditions: Homo sapiens
BJ [19] = experiment: cytotoxicity toward BJ-TERT fibroblasts, dose response, cell-based, RAS-independent, luminescence (AID 1933); assay type: functional; conditions: Homo sapiens
Beta-galactosidase = Beta-galactosidase (Escherichia coli, UniProt Q8VNN2); assay type: functional
Sequence of Beta-galactosidase (Q8VNN2 whole entry): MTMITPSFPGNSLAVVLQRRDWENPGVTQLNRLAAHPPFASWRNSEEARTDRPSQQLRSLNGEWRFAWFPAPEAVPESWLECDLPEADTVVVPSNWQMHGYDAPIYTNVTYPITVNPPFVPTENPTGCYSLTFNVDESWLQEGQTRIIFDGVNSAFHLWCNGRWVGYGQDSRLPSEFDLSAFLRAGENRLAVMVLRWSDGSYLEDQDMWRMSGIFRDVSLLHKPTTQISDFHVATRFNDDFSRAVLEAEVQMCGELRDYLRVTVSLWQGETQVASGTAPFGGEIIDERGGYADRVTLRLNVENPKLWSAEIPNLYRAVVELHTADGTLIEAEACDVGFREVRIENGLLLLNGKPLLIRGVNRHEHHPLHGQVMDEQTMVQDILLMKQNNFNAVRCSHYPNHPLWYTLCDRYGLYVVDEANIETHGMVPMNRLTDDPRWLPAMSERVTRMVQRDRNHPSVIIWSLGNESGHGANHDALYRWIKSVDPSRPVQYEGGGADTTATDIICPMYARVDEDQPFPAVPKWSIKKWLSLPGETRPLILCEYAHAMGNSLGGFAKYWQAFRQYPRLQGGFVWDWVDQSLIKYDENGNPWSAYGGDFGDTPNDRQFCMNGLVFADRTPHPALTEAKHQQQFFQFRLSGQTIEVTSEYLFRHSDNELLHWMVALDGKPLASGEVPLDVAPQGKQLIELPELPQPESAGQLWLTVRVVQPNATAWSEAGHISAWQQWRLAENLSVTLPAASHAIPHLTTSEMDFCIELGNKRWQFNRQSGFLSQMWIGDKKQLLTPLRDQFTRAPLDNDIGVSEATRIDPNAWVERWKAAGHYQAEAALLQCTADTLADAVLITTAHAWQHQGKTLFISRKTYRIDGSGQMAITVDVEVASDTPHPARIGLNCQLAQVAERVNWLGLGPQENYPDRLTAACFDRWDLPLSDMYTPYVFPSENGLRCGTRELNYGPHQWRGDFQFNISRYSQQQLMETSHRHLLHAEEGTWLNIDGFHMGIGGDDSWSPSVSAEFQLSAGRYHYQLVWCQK

HEK293 [20] = experiment: NOD2 signaling inhibitors in MDP-stimulated cells, cell-based, uHTS, luminescence (AID 2001); assay type: functional; conditions: Homo sapiens
Beta Lactamase = Beta Lactamase (Pseudomonas aeruginosa, UniProt Q932Y6); experiment: beta-lactamase reporter inhibitor potency, dose response, artefact control for NOD2-RIPK2 interaction inhibitor project, BLA reporter cells, FRET fluorescence (AID 651552); assay type: functional, cell-based
Sequence of Beta Lactamase (Q932Y6 whole entry): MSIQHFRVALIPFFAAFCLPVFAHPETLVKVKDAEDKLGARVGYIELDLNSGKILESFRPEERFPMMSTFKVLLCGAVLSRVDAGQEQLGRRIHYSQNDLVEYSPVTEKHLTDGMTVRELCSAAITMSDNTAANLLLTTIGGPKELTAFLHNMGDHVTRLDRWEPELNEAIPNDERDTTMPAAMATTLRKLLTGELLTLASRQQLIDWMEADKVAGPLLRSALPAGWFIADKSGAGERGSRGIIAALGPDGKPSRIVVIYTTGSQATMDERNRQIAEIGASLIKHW

Mu-type opioid receptor = Mu-type opioid receptor (Homo sapiens, UniProt P35372); experiment: HTS Image-Based Screen for Agonists of the MOR Receptor. [Related pubchem assays (depositor defined):AID1777, AID1785, AID1786, AID2133]; assay type: functional;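 also: imaging of beta-arrestin GFP recruitment into spots after receptor activation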
Sequence of Mu-type opioid receptor (P35372 whole entry): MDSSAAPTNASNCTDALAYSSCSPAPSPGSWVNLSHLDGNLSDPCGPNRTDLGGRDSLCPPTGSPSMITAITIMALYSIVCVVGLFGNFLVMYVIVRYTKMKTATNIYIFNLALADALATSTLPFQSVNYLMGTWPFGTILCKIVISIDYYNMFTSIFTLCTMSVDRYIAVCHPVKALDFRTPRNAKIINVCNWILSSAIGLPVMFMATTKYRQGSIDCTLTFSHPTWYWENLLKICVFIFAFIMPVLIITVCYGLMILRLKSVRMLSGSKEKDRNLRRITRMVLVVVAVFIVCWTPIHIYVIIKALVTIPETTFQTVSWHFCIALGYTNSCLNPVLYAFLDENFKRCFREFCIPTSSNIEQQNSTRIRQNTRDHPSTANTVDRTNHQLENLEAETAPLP

[21] = control 3'UTR Renilla luciferase suppression, dose response, counter-screen for Shn3 inhibitor project, cell-based, Clone20-Shn3RL, cherry-picked (AID 624133); assay type: functional
Protein RecA = target: T4, Protein RecA (Mycobacterium tuberculosis, UniProt P9WHJ3); experiment: Fluorescence Cell-Free Homogeneous Dose Retest to Identify Inhibitors of RecA-Intein Splicing Activity. [Related pubchem assays (depositor defined):AID2097, AID2223, AID489010, AID492950]; assay type: functional
T4 sequence (P9WHJ3 whole entry): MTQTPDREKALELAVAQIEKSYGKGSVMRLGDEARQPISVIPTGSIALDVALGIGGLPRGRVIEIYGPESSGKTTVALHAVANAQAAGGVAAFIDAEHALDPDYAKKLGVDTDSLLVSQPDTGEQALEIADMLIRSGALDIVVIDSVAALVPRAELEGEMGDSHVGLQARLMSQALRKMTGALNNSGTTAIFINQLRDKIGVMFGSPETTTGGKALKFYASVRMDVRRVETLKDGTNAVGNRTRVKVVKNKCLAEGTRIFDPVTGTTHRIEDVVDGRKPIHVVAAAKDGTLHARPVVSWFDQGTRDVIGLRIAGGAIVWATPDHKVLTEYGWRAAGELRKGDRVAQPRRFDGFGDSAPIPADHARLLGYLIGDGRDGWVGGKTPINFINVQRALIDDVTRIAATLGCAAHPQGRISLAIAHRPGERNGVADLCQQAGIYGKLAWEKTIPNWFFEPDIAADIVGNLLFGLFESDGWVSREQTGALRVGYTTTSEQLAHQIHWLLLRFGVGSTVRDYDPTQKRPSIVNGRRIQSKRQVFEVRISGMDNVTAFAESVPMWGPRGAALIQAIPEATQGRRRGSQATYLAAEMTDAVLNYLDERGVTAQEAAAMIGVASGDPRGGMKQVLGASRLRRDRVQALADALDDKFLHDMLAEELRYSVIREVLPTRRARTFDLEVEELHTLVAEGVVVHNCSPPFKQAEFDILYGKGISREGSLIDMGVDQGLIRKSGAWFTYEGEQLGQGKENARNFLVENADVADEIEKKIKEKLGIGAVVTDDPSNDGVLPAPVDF

[22] = target: T5, Replicative DNA helicase DnaB (Mycobacterium tuberculosis, UniProt P9WMR3); experiment: DnaB intein splicing inhibitors, dose response, biochemical, cell-free fluorescence (AID 449749); assay type: functional
T5 sequence (P9WMR3 whole entry): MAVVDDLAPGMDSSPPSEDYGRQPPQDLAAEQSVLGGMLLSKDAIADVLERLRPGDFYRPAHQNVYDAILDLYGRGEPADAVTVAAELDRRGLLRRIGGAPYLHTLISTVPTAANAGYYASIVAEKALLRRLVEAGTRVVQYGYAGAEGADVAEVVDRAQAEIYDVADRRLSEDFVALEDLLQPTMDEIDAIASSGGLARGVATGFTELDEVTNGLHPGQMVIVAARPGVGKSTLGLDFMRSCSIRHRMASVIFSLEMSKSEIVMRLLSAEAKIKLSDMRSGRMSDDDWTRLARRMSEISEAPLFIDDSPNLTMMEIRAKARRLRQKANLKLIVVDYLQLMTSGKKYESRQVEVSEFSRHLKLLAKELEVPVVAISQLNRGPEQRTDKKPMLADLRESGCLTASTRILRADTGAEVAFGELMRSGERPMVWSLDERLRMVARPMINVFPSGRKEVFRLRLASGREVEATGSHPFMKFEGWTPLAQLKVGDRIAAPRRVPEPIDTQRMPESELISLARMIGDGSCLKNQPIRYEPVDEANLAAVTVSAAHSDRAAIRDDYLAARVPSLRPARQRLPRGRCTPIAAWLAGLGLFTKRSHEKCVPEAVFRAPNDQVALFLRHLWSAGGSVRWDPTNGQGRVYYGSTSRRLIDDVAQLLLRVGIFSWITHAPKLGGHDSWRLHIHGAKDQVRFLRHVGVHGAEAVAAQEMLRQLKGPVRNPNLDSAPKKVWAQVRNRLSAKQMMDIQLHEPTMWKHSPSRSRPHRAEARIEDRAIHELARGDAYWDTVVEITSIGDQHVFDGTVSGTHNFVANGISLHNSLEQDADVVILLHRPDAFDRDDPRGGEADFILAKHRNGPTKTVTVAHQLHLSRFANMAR

X-box-binding protein 1 = X-box-binding protein 1 (Homo sapiens, UniProt P17861); assay type: functional, Cricetulus griseus;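 also: confirmatory dose-response counter-screen serving a CHOP assay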
[23] = NIH-3T3 fibroblast cytotoxicity, dose response, cytotoxicity control, cell-based, fluorescence, Alamar Blue, secondary assay (AID 2327); assay type: functional;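 also: NIH-3T3 mouse fibroblasts cultured with fluconazole at 8 µg/mL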
Cytochrome P450 2C9 = Cytochrome P450 2C9 (Homo sapiens, UniProt P11712)
Sequence of Cytochrome P450 2C9 (P11712 whole entry): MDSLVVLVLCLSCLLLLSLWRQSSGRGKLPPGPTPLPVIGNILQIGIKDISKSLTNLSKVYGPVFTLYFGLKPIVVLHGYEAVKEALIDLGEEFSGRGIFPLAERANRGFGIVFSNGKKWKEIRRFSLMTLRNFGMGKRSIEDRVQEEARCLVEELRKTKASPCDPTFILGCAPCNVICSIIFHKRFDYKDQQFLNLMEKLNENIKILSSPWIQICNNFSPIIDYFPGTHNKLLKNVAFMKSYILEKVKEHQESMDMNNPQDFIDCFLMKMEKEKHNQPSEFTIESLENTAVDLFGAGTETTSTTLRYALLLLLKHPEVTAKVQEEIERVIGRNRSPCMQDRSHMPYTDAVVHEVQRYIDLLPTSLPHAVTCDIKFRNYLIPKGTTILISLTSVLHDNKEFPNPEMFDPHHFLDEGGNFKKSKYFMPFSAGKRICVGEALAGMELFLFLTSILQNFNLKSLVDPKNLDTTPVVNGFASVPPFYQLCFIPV

Cytochrome P450 3A4 = Cytochrome P450 3A4 (Homo sapiens, UniProt P08684);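 also: CYP3A4 tested as one member of a cytochrome P450 panel screen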
Sequence of Cytochrome P450 3A4 (P08684 whole entry): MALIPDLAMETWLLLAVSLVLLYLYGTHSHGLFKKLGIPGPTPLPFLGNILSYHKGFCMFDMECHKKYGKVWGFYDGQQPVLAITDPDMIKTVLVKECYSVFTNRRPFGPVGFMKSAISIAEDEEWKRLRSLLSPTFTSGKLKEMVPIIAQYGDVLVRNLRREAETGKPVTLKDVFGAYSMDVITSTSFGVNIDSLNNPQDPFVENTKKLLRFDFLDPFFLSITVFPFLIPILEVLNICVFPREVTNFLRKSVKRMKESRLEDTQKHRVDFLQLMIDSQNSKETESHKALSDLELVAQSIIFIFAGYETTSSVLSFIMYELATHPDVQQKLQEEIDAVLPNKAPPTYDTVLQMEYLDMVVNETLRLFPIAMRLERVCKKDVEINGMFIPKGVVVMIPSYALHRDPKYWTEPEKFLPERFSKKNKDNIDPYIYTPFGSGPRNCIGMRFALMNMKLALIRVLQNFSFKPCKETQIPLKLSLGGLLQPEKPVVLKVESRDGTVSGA

Cytochrome P450 2D6 = Cytochrome P450 2D6 (Homo sapiens, UniProt P10635);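 also: CYP2D6 member of a cytochrome P450 panel assay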
Sequence of Cytochrome P450 2D6 (P10635 whole entry): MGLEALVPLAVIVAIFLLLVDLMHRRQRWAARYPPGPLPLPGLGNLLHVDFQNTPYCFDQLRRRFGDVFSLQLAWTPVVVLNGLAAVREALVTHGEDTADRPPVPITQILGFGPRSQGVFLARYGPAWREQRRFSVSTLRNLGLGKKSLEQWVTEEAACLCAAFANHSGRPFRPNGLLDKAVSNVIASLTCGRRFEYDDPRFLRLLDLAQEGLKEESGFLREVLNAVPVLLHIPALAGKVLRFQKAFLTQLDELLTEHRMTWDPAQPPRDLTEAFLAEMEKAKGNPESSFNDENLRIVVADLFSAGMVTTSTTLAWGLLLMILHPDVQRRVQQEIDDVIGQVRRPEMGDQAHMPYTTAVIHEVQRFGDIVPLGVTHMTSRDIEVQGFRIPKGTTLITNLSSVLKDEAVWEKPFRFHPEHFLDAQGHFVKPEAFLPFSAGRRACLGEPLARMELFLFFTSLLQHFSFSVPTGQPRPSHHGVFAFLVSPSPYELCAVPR

[24] = C. albicans growth with fluconazole, confirmation, fluorescence, retest (AID 2467); assay type: functional, cell-based
[25] = target: FAD-linked sulfhydryl oxidase ALR (Homo sapiens, UniProt P55789); experiment: inhibitors of human ALR sulfhydryl oxidase, dose response, biochemical, H2O2 detection, luminescence, cherry-pick (AID 493248)
Sequence of FAD-linked sulfhydryl oxidase ALR (P55789 whole entry): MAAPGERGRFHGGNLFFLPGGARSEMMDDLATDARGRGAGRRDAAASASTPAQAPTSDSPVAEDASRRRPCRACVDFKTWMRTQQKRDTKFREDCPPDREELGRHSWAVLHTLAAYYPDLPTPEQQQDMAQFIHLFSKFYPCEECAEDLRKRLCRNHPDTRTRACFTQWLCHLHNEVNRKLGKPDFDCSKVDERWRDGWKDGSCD

[26] = target: DNA dC->dU-editing enzyme APOBEC-3G (Homo sapiens, UniProt Q9HC16); experiment: Dose Response confirmation of small molecule APOBEC3G DNA Deaminase Inhibitors via a fluorescence-based single-stranded DNA deaminase assay. [Related pubchem assays (depositor defined):AID493012, AID493028]; assay type: functional
Sequence of DNA dC->dU-editing enzyme APOBEC-3G (Q9HC16 whole entry): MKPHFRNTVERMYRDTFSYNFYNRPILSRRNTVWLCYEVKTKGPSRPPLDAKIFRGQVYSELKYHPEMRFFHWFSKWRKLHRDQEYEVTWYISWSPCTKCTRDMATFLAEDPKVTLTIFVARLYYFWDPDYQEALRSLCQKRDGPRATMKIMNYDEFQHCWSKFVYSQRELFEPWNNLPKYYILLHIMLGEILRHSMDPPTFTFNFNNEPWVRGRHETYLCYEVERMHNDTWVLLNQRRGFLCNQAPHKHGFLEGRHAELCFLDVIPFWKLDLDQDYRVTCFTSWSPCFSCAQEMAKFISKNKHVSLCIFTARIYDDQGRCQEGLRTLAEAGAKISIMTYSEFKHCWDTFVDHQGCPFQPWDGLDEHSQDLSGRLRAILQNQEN

[27] = target: DNA dC->dU-editing enzyme APOBEC-3A (Homo sapiens, UniProt P31941); experiment: APOBEC3A DNA deaminase inhibitors, dose response, biochemical (AID 504722); assay type: functional
[28] = target: T6, Rac GTPase-activating protein 1 (Homo sapiens, UniProt Q9H0H5); experiment: MgcRacGAP GTPase-activating activity inhibitors, confirmation, biochemical, ADP Hunter fluorescence, primary and confirmatory (AID 624330); assay type: functional
T6 sequence (Q9H0H5 whole entry): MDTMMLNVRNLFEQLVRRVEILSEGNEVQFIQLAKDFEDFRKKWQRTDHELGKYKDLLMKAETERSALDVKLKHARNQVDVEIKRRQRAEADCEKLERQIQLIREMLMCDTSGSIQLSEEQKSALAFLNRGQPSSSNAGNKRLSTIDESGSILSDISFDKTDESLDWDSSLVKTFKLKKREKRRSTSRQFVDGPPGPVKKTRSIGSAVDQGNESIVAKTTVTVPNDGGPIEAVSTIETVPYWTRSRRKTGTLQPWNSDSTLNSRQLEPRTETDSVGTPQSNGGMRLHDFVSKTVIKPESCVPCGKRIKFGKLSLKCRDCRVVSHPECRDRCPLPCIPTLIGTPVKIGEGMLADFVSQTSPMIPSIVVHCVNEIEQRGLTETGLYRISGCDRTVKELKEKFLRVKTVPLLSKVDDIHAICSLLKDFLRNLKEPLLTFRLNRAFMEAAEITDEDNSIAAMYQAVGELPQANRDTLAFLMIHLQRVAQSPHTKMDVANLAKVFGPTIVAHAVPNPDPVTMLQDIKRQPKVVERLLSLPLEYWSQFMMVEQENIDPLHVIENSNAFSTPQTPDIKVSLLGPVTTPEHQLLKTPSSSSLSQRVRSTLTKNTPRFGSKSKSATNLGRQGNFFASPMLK

Sequence of Eukaryotic translation initiation factor 4E (P63073 whole entry): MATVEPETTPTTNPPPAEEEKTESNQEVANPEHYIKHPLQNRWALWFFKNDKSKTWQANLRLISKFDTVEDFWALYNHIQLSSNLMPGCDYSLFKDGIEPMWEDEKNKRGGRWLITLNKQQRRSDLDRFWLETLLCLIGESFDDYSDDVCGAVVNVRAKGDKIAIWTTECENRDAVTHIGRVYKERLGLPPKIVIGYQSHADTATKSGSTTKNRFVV

CCn1nnnc1SCC(=O)Nc1cccc(NC(C)=O)c1
IC50 [1]: > 64 µM (inactive)

COCCN(CC(=O)NC1CCCCC1)C(=O)/C=C/C(=O)c1ccc(OC)cc1O
EC50 [2]: 9.57 µM (active)
IC50 (HEK293 [3]): 16.6 µM (active)
IC50 (HEK293 [4]): > 20 µM (inactive)
EC50 (BJ [5]): 9.79 µM (inconclusive)
IC50 [6]: 3.11 µM (active)
EC50 [7]: > 120 µM (not active)
IC50 [8]: > 32 µM (inactive)
EC50 [9]: > 32 µM (inactive)
EC50 [10]: 2.74 µM (inconclusive)
EC50 (BJ [11]): 1.62 µM (inconclusive)
IC50 [12]: 16.1 µM
EC50 [13]: 8.52 µM (active)
AC50 [14]: 5.48 µM (active)
IC50 [15]: 7.13 µM (active)
AC50 [16]: 2.58 µM (active)
AC50 [17]: 13.7 µM (active)
AC50 (Paired box protein Pax-8): 5.38 µM (active)
EC50 (HEK293 [18]): > 20 µM (inactive)
EC50 (BJ [19]): 2.71 µM (inconclusive)
EC50 (Beta-galactosidase): > 31.5 µM (inactive)
IC50 (HEK293 [20]): > 20 µM (inactive)
IC50 (Beta Lactamase): 17.8 µM (inactive)
EC50 (Mu-type opioid receptor): > 32 µM (inactive)
AC50 [21]: 9.9 µM (active)

Cc1cc(-c2[nH]nc3c2C(c2ccc(Cl)cc2)C(C#N)=C(N)O3)c(C)s1 (stereo not drawn)
EC50 (Protein RecA): 3.42 µM (active)
AC50 [22]: 3.07 µM (active)
Absolute IC50 (XBP1) (X-box-binding protein 1): 10 µM

CC(=O)Nc1ccc(N2CCCCC2)c(C(=O)Nc2cccc(C)c2)c1
EC50 [23]: 50.5 µM (active)
AC50 (Cytochrome P450 2C9): 12.6 µM (inconclusive)
AC50 (Cytochrome P450 3A4): 22.4 µM (inconclusive)
AC50 (Cytochrome P450 2D6): 17.8 µM (inconclusive)
EC50 [24]: > 38 µM (not active)
IC50 [1]: > 64 µM (inactive)

Sc1nnc(-c2ccncc2)n1/N=C/C=C/c1ccccc1
AC50 [25]: 8.12 µM (active)
IC50 [26]: 2.76 µM (active)
IC50 [27]: > 100 µM (inactive)
IC50 [28]: 125 µM (active)
